Several values for one entry are separate records, joined by “and”; a condition that tells them apart may be missing. Equal values may be shown once. Where a name gives a salt, the structure may show the parent alone. Read-outs that look alike come from different tables or passages of the source.
Assays:
[1] = biological target: T1, human OPRM1 (μ, MOR) (Homo sapiens, UniProt P35372); format: cell-based; conditions: for ΔRA of compound: relative activity from EC50 and Emax of β-arrestin vs cAMP, lower RA = more G-protein biased
T1 construct: host or cells: CHO-K1
Procedure: In certain embodiments, the ability of a compound to activate G-protein or β-arrestin is not an on/off switch for a given pathway, but rather a continuous function. To capture this, each compound is measured for activity in cell assays that are linked to β-arrestin recruitment and G-protein signaling. By comparing the activity between these two measures (accounting for both EC50 and maximal response reached, Emax) a relative activity (RA) value is determined.
In the case of MOR it is desirable to have high activation of the G-protein pathway while reducing activation of β-arrestin. In the case of the formula above, this means a lower RA.

[2] = biological target: T1, human OPRM1 (μ, MOR); assay: cell-based; conditions: for EC50: PathHunter human OPRM1 Arrestin CHO-K1 cell line, read-out: β-Arrestin EC50; for Emax: OPRM1, read-out: β-Arrestin Emax
Procedure: The Discoverx PathHunter® β-Arrestin assay is used to measure β-arrestin-2 activity. The technology is based on Enzyme Fragment Complementation (EFC) with β-galactosidase (β-Gal) as the reporter. […] EA is fused to Q-arrestin-2, and ED is fused to the C-terminus of the GPCR of interest. When a ligand binds and the GPCR is activated, Q-arrestin-2 is recruited to the receptor resulting in an ED/EA complementation, restoring f-Gal activity, which is measured using chemiluminescence. For this assay, the PathHunter human OPRM1 (μ, MOR) Arrestin CHO-K1 cell line was used.

[3] = biological target: T1, human OPRM1 (μ, MOR); assay: cell-based; conditions: for EC50: PathHunter human OPRM1 Arrestin CHO-K1 cell line, read-out: cAMP EC50; for Emax: OPRM1, read-out: cAMP Emax
Procedure: G-protein signaling was measured via second messenger cAMP modulation. Detection of cAMP modulation was accomplished in the PathHunter human OPRM1 (μ, MOR) Arrestin CHO-K1 cell line using the Dynamic2 cAMP Kit from Cisbio.

T1 sequence (P35372 whole entry): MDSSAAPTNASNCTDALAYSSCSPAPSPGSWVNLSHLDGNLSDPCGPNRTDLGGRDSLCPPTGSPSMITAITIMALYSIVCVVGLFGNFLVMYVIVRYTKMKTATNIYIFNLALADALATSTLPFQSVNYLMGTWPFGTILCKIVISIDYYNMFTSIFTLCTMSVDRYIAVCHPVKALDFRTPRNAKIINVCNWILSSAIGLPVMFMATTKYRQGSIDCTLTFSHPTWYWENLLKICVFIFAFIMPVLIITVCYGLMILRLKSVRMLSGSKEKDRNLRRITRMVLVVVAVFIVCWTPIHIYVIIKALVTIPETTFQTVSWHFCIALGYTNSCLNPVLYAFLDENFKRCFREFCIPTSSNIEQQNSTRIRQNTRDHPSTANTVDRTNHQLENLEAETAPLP

CN(C)C(CNC(=O)N1Cc2ccc(F)cc2C1)c1ccsc1 (single isomer, unassigned) [2a-ent-(+), (+)—N-(2-(Dimethylamino)-2-(thiophen-3-yl)ethyl)-5-fluoroisoindoline-2-carboxamide hydrochloride]
Bias Factor (ΔRA of compound relative to ΔRA of DAMGO) × 10 ([1]; hydrochloride): −9.24 | ΔRA of compound ([1]; hydrochloride): −2.40 | EC50 [2]: 1080 nM and 1010 nM | β-Arrestin Emax ([2]; hydrochloride): 6.57, 13.7% | EC50 [3]: 18 nM and 58 nM | cAMP Emax ([3]; hydrochloride): 99.5, 95.4%

CNC(CNC(=O)N1Cc2ccccc2C1)c1ccccc1 (single isomer, unassigned) [Compound 38-ent-B, (+)—N-(2-(Methylamino)-2-phenylethyl)isoindoline-2-carboxamide]
Bias Factor (ΔRA of compound relative to ΔRA of DAMGO) × 10 [1]: <−14.83 | ΔRA of compound [1]: <−2.96 | β-Arrestin Emax [2]: 5.9% | EC50 [2]: > 100000 nM | cAMP Emax [3]: 97.6% | EC50 [3]: 840 nM

CN(C)C(CNC(=O)N1Cc2ccccc2C1)c1ccccc1 (single isomer, unassigned) [Compound 57]
Bias Factor (ΔRA of compound relative to ΔRA of DAMGO) × 10 [1]: <−14.83 | ΔRA of compound [1]: <−2.96 | β-Arrestin Emax [2]: <1% | EC50 [2]: > 100000 nM | Emax [3]: 89.4% | EC50 [3]: 72 nM

CN(C)C(CNC(=O)N1Cc2ccccc2C1)c1ccccc1 (single isomer, unassigned) [Compound 58]
Bias Factor (ΔRA of compound relative to ΔRA of DAMGO) × 10 [1]: −1.66 | ΔRA of compound [1]: −1.65 | β-Arrestin Emax [2]: 35.2% | EC50 [2]: 1890 nM | cAMP Emax [3]: 109.1% | EC50 [3]: 132 nM

CN(C)C(CNC(=O)N1Cc2ccc(F)cc2C1)c1ccsc1 (single isomer, unassigned; (-)) [2a-ent-(−), (−)-N-(2-(Dimethylamino)-2-(thiophen-3-yl)ethyl)-5-fluoroisoindoline-2-carboxamide hydrochloride]
Bias Factor (ΔRA of compound relative to ΔRA of DAMGO) × 10 ([1]; hydrochloride): <−14.83 | ΔRA of compound ([1]; hydrochloride): <−2.96 | EC50 [2]: > 100000 nM | β-Arrestin Emax ([2]; hydrochloride): <1% | EC50 [3]: 12 nM and 15 nM | cAMP Emax ([3]; hydrochloride): 55.5, 30.4%

CNC(CNC(=O)N1Cc2ccccc2C1)c1ccccc1 (single isomer, unassigned; (-)) [Compound 38-ent-A, (−)-N-(2-(Methylamino)-2-phenylethyl)isoindoline-2-carboxamide]
Bias Factor (ΔRA of compound relative to ΔRA of DAMGO) × 10 [1]: <−14.83 | ΔRA of compound [1]: <−2.96 | Emax [2]: 3.7% | EC50 [2]: > 100000 nM | Emax [3]: 81.6% | EC50 [3]: 379 nM

CN(C)C(CNC(=O)N1Cc2ccccc2C1)c1ccsc1 (stereo not shown) [Compound 1a, N-(2-(Dimethylamino)-2-(thiophen-3-yl)ethyl)isoindoline-2-carboxamide hydrochloride]
Bias Factor (ΔRA of compound relative to ΔRA of DAMGO) × 10 [1]: −5.75 | ΔRA of compound [1]: −2.06 | Emax [2]: 5.67% | EC50 [2]: 186 nM | Emax [3]: 69.2% | EC50 [3]: 20 nM

CN(C)C(CNC(=O)N1Cc2cccc(F)c2C1)c1ccsc1 (stereo not shown) [Compound 3a, N-(2-(Dimethylamino)-2-(thiophen-3-yl)ethyl)-4-fluoroisoindoline-2-carboxamide hydrochloride]
Bias Factor (ΔRA of compound relative to ΔRA of DAMGO) × 10 [1]: −5.07 | ΔRA of compound [1]: −1.99 | Emax [2]: 21.9% | EC50 [2]: 310 nM | Emax [3]: 94.2% | EC50 [3]: 14 nM

CN(C)C(CNC(=O)N1Cc2ccc(Cl)cc2C1)c1ccsc1 (stereo not shown) [Compound 4a, 5-Chloro-N-(2-(dimethylamino)-2-(thiophen-3-yl)ethyl)isoindoline-2-carboxamide hydrochloride]
Emax [2]: < 1% | EC50 [2]: > 100000 nM | Emax [3]: 20.7% | EC50 [3]: > 100000 nM

COc1ccc2c(c1)CN(C(=O)NCC(c1ccsc1)N(C)C)C2 (stereo not shown) [Compound 5a, N-(2-(Dimethylamino)-2-(thiophen-3-yl)ethyl)-5-methoxyisoindoline-2-carboxamide hydrochloride]
Emax [2]: < 1% | EC50 [2]: > 100000 nM | Emax [3]: 5% | EC50 [3]: > 100000 nM

CN(C)C(CNC(=O)N1Cc2cc(F)c(F)cc2C1)c1ccsc1 (stereo not shown) [Compound 6a, N-(2-(dimethylamino)-2-(thiophen-3-yl)ethyl)-5,6-difluoroisoindoline-2-carboxamide hydrochloride]
Bias Factor (ΔRA of compound relative to ΔRA of DAMGO) × 10 [1]: <−14.83 | ΔRA of compound [1]: <−2.96 | Emax [2]: < 1% | EC50 [2]: > 100000 nM | Emax [3]: 21.9% | EC50 [3]: 9 nM

CN(C)C(CNC(=O)N1CCCc2cc(F)ccc21)c1ccsc1 (stereo not shown) [Compound 7a, N-(2-(dimethylamino)-2-(thiophen-3-yl)ethyl)-6-fluoro-3,4-dihydroquinoline-1(2H)-carboxamide hydrochloride]
Bias Factor (ΔRA of compound relative to ΔRA of DAMGO) × 10 [1]: <−14.83 | ΔRA of compound [1]: <−2.96 | Emax [2]: < 1% | EC50 [2]: > 100000 nM | Emax [3]: 92.1% | EC50 [3]: 407 nM

CN(C)C(CNC(=O)N1CCCc2ccc(F)cc21)c1ccsc1 (stereo not shown) [Compound 8a, N-(2-(dimethylamino)-2-(thiophen-3-yl)ethyl)-7-fluoro-3,4-dihydroquinoline-1(2H)-carboxamide]
Bias Factor (ΔRA of compound relative to ΔRA of DAMGO) × 10 [1]: <−14.83 | ΔRA of compound [1]: <−2.96 | Emax [2]: 6.18% | EC50 [2]: > 100000 nM | Emax [3]: 86.9% | EC50 [3]: 730 nM

CN(C)C(CNC(=O)N1CCCc2ccccc21)c1ccsc1 (stereo not shown) [Compound 9a, N-(2-(dimethylamino)-2-(thiophen-3-yl)ethyl)-3,4-dihydroquinoline-1(2H)-carboxamide hydrochloride]
Bias Factor (ΔRA of compound relative to ΔRA of DAMGO) × 10 [1]: −6.20 | ΔRA of compound [1]: −2.10 | Emax [2]: 5.11% | EC50 [2]: 4360 nM | Emax [3]: 75.7% | EC50 [3]: 512 nM

CN(C)C(CNC(=O)NC1CCc2ccccc2C1)c1ccsc1 (stereo not shown) [Compound 10a, 1-(2-(Dimethylamino)-2-(thiophen-3-yl)ethyl)-3-(1,2,3,4-tetrahydronaphthalen-2-yl)urea hydrochloride]
Bias Factor (ΔRA of compound relative to ΔRA of DAMGO) × 10 [1]: <−14.83 | ΔRA of compound [1]: <−2.96 | Emax [2]: 3.33% | EC50 [2]: > 100000 nM | Emax [3]: 85.5% | EC50 [3]: 4 nM

CN(C)C(CNC(=O)NC1CCCc2ccccc21)c1ccsc1 (stereo not shown) [Compound 11a, 1-(2-(Dimethylamino)-2-(thiophen-3-yl)ethyl)-3-(1,2,3,4-tetrahydronaphthalen-1-yl)urea hydrochloride]
Bias Factor (ΔRA of compound relative to ΔRA of DAMGO) × 10 [1]: 2.32 | ΔRA of compound [1]: −1.24 | Emax [2]: 112% | EC50 [2]: 21 nM | Emax [3]: 94.3% | EC50 [3]: < 1 nM

Cc1ccc2c(c1)CN(C(=O)NCC(c1ccsc1)N(C)C)C2 (stereo not shown) [Compound 12a, N-(2-(Dimethylamino)-2-(thiophen-3-yl)ethyl)-5-methylisoindoline-2-carboxamide hydrochloride]
Emax [2]: 2.16% | EC50 [2]: > 100000 nM | Emax [3]: 6.33% | EC50 [3]: > 100000 nM

CN(C)C(CNC(=O)N(C)C1CCCc2ccccc21)c1ccsc1 (stereo not shown) [Compound 13a, 3-(2-(Dimethylamino)-2-(thiophen-3-yl)ethyl)-1-methyl-1-(1,2,3,4-tetrahydronaphthalen-1-yl)urea hydrochloride]
Bias Factor (ΔRA of compound relative to ΔRA of DAMGO) × 10 [1]: −8.39 | ΔRA of compound [1]: −2.3 | Emax [2]: 11.3% | EC50 [2]: 1680 nM | Emax [3]: 95.3% | EC50 [3]: 68 nM

CN(C)C(CNC(=O)N1Cc2ccccc2C1)c1ccc(F)cc1Cl (stereo not shown) [Compound 14a, N-(2-(2-Chloro-4-fluorophenyl)-2-(dimethylamino)ethyl)isoindoline-2-carboxamide hydrochloride]
Bias Factor (ΔRA of compound relative to ΔRA of DAMGO) × 10 [1]: −5.91 | ΔRA of compound [1]: −2.07 | Emax [2]: 61.2% | EC50 [2]: 3960 nM | Emax [3]: 102% | EC50 [3]: 56 nM

COc1ccc(C(CNC(=O)N2Cc3ccccc3C2)N(C)C)cc1 (stereo not shown) [Compound 15a, N-(2-(Dimethylamino)-2-(4-methoxyphenyl)ethyl)isoindoline-2-carboxamide hydrochloride]
Bias Factor (ΔRA of compound relative to ΔRA of DAMGO) × 10 [1]: −8.71 | ΔRA of compound [1]: −2.35 | Emax [2]: 44.2% | EC50 [2]: 1370 nM | Emax [3]: 108% | EC50 [3]: 15 nM

CN(C)C(CNC(=O)N1CC[C@@H](c2ccccc2)C1)c1ccsc1 (stereo partly shown) [Compound 41]
Emax [2]: < 1% | EC50 [2]: > 100000 nM | Emax [3]: 9.6% | EC50 [3]: > 100000 nM

CN(C)C(CNC(=O)N[C@@H]1CCc2ccccc2C1)c1ccsc1 (stereo partly shown) [Compound 47]
Bias Factor (ΔRA of compound relative to ΔRA of DAMGO) × 10 [1]: <−14.83 | ΔRA of compound [1]: <−2.96

CN(C)C(CNC(=O)N[C@@H]1CCc2ccccc2C1)c1ccsc1 (stereo partly shown) [Compound 48]
Bias Factor (ΔRA of compound relative to ΔRA of DAMGO) × 10 [1]: <−14.83 | ΔRA of compound [1]: <−2.96

C[C@@H](NC(=O)[C@@H](N)Cc1ccc(O)cc1)C(=O)NCC(=O)N(C)[C@@H](Cc1ccccc1)C(=O)NCCO [DAMGO, H-Tyr-D-Ala-Gly-NMe-Phe-Gly-OH, reference compound]
Emax [2]: 98.3% | Emax [3]: 108%

From patent US20220315567A1 (priority 2016, published 2022)
